These results are taken from US6545131B1, “Tissue specific prodrug” (priority 1997, dated 2003).

Where two headings read alike, the source gives them in different places.

Data set [1] can be described thus: Clonogenic survival of TSU-Pr1 cells after 72 hours exposure to TG analogs. The data set is classed as cell-based, human. The conditions noted are these: human; TSU-Pr1, 72 hours exposure; mean (n=5) ± standard error; read-out: LC50 (concentration needed to kill 50% of clonogenic cells). As to the method: The primary amine-containing thapsigargin analogs of the invention have non-specific toxicity toward cells. This toxicity is measured as the concentration of analog needed to kill 50% of clonogenic cells (LC50). The LC50 of the analogs of the invention is desirably at most 20 μM, preferably at most 5 μM, and more preferably at most 500 nM of analog.
Percentage clonogenic survival of TSU-Pr1 (2×10^5 cells) following 72 hours of exposure to varying concentrations of TG analogs was performed as described in Martikainen et al. Cancer Res., 51, 4693-4700 (1991).
(§1) The IC50 results are mean (n=3)±standard error. The LC50 results are mean (n=5)±standard error. The entry “ND” stands for “not determined”. Clonogenic survival not determined above 10 μM for dBTG. Analogs with −boc have a t-butoxycarbonyl (boc) protected amino group.
The androgen responsive PSA-producing LNCaP and androgen independent PSA non-producing TSU-Pr1 are human prostate cancer lines were obtained from ATCC (Rockville, Md.) and maintained by serial passage in RPMI 1640 media containing 10% fetal calf serum with 100 units/ml penicillin G, and 100 units/ml streptomycin sulfate (antibiotics from M.A. Bioproducts, Walkerville, Md.) as standard media in 5% CO2/95% air at 37° C. The origins and characteristics of the LNCaP and TSU-Pr1 cell lines are described in Horoszewicz, et al., Cancer Res., 43:1809-1818, (1980)and Iizumi, et al., J. Urol, 137: 1304-1306, (1987).

Data set [2] addresses T1, endoplasmic reticulum Ca2+-ATPase (SERCA), SR vesicles from rabbit skeletal muscle (Oryctolagus cuniculus, UniProt P04191).
T1 construct: sarcoplasmic reticulum (SR) vesicles prepared from rabbit skeletal muscle; from tissue; host or cells: rabbit skeletal muscle sarcoplasmic reticulum vesicles
Description: SERCA inhibition: 45Ca2+ uptake to sarcoplasmic reticulum vesicles. The data set is classed as biochemical. The protocol: The primary amine-containing thapsigargin analogs of the invention have endoplasmic reticulum Ca^2+-ATPase inhibitory activity. This activity is measured as the concentration of analog needed to inhibit 50% of this ATPase (IC50). The IC50 of the analogs of the invention is desirably at most 500 nM, preferably at most 200 nM, and more preferably at most 50 nM of analog.
The inhibitory potency of thapsigargin and its analogs was determined as the concentration required to produce 50% inhibition (i.e. IC50) of ^45Ca^2+ uptake to sarcoplasmic reticulum (SR) vesicles prepared from rabbit skeletal muscle by the method of De Meis and Hasselbach (J. Biol. Chem., 246: 4759-4763, 1971). The ^45Ca^2+ uptake assay was as described previously (Christensen, et al., FEBS, 335: 345-348, 1993), with the following modifications: 5 μg/ml of SR protein was incubated at 25EC and free Ca^2+ adjusted to 100 nM using 4 min. uptake time. Under these conditions, Ca^2+ could proceed linearly with time for at least 8 minutes. Measurements of Ca^2+ within TSU cells was determined as described previously (Lin et al., The Prostate, 33:201-207, 1997).
as §1

Where [3] appears, read: mean (n=3) ± standard error, 5 μg/ml SR protein, free Ca2+ 100 nM, 4 min uptake, read-out: IC50 (50% inhibition of 45Ca2+ uptake to SR vesicles).

T1 sequence (P04191 1-994 isoform P04191-2): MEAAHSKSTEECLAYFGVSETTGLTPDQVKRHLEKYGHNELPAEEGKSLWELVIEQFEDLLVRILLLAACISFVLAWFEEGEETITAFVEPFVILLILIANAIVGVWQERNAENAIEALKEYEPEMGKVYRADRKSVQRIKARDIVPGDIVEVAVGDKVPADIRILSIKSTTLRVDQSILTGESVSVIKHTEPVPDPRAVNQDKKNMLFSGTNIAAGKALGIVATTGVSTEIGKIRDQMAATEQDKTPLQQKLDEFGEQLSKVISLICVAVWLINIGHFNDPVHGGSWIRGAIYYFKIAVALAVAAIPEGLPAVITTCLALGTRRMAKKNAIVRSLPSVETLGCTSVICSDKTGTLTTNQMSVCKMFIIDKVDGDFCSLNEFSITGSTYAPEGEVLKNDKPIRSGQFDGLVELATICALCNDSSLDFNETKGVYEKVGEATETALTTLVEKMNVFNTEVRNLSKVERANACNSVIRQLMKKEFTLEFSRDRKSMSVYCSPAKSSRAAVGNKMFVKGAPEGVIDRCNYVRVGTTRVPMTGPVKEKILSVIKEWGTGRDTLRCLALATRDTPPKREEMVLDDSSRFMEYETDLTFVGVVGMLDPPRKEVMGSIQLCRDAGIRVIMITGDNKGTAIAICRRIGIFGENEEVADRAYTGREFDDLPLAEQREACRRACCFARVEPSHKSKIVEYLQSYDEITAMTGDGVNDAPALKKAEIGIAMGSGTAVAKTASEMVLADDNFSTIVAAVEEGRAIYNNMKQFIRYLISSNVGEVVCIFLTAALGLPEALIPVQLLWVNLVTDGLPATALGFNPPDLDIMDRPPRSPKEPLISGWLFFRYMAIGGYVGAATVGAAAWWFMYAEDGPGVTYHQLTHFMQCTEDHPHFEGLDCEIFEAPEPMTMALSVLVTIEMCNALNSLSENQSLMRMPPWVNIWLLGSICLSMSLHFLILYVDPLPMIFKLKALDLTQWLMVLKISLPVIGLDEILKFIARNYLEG

For `C/C=C(/C)C(=O)O[C@H]1C(C)=C2[C@H]([C@@H]1OC(=O)CCCCCCC)[C@@](C)(OC(C)=O)C[C@H](OC(=O)CCCC(=O)Nc1ccc(C)c(N)c1)[C@@]1(O)[C@H]2OC(=O)[C@@]1(C)O` [GDT, 8-O-{4-(N-[3-amino-4-methylphenyl]-carboxamido)butanoyl}-8-O-debutanoylthapsigarg in], the CC50 in data set [1] came out at 16600 ± 400 nM. Further, the half-inhibitory concentration (IC50) (usually the concentration needed to halve the response being measured) in data set [2] (setting [3]) stood at 316 ± 23 nM.
On to `C/C=C(/C)C(=O)O[C@H]1C(C)=C2[C@H]([C@@H]1OC(=O)CCCCCCC)[C@@](C)(OC(C)=O)C[C@H](OC(=O)CCCc1ccc(N)cc1)[C@@]1(O)[C@H]2OC(=O)[C@@]1(C)O` [ABuT, 8-O-(4-[4-aminophenyl]butanoyl)-8-O-debutanoylthapsigargin], for which the CC50 in data set [1] amounted to 225 ± 20 nM. Further, the IC50 in data set [2] (setting [3]) worked out at 18.4 ± 1.4 nM.
As to `C/C=C(/C)C(=O)O[C@H]1C(C)=C2[C@H]([C@@H]1OC(=O)CCCCCCC)[C@@](C)(OC(C)=O)C[C@H](OC(=O)CCc1ccc(N)cc1)[C@@]1(O)[C@H]2OC(=O)[C@@]1(C)O` [APT, 8-O-(3-[4-aminophenyl]propionyl)-8-O-debutanoylthapsigargin], in data set [1], the CC50 is 275 ± 60 nM. For the same compound, in data set [2] (setting [3]), the IC50 stood at 16.2 ± 0.9 nM.
The like results for `C/C=C(/C)C(=O)O[C@H]1C(C)=C2[C@H]([C@@H]1OC(=O)CCCCCCC)[C@@](C)(OC(C)=O)C[C@H](OC(=O)/C=C/c1ccc(NC(=O)OC(C)(C)C)cc1)[C@@]1(O)[C@H]2OC(=O)[C@@]1(C)O` [ACT-boc, 8-O-(4-t-butoxycarbonylaminocinnamoyl)-8-O-debutanoylthapsigargin] were, in that order, 1900 ± 100 nM and 20.3 ± 0.2 nM.
For `C/C=C(/C)C(=O)O[C@H]1C(C)=C2[C@H]([C@@H]1OC(=O)CCCCCCC)[C@@](C)(OC(C)=O)C[C@H](OC(=O)c1ccc(N)cc1)[C@@]1(O)[C@H]2OC(=O)[C@@]1(C)O` [ABT, 8-O-(4-aminobenzoyl)-8-O-debutanoylthapsigargin], the CC50 in data set [1] stood at 4000 ± 300 nM. In addition, in data set [2] (setting [3]), the IC50 came to 18.4 ± 0.3 nM.
In the case of `C/C=C(/C)C(=O)O[C@H]1C(C)=C2[C@H]([C@@H]1OC(=O)CCCCCCC)[C@@](C)(OC(C)=O)C[C@H](OC(=O)CCCCCC(=O)Nc1ccc(C)c(N)c1)[C@@]1(O)[C@H]2OC(=O)[C@@]1(C)O` [PDT, 8-O-{6-(N-[3-amino-4-methylphenyl]-carboxamido)hexanoyl}-8-O-debutanoylthapsigargin], the CC50 in data set [1] is 3100 ± 200 nM. Besides, in data set [2] (setting [3]), the concentration for half-maximal inhibition (IC50) is 17.7 ± 2.4 nM.
The like results for `C/C=C(/C)C(=O)O[C@H]1C(C)=C2[C@H]([C@@H]1OC(=O)CCCCCCC)[C@@](C)(OC(C)=O)C[C@H](OC(=O)CCc1ccc(NC(=O)OC(C)(C)C)cc1)[C@@]1(O)[C@H]2OC(=O)[C@@]1(C)O` [APT-boc, 8-O-(3-[4-t-butoxycarbonylaminophenyl]propionyl)-8-O-debutanoylthapsigargin] were, in that order, 870 ± 15 nM and 21.2 ± 0.8 nM.
Turning to `C/C=C(/C)C(=O)O[C@H]1C(C)=C2[C@H]([C@@H]1OC(=O)CCCCCCC)[C@@](C)(OC(C)=O)C[C@H](OC(=O)CCCc1ccc(NC(=O)OC(C)(C)C)cc1)[C@@]1(O)[C@H]2OC(=O)[C@@]1(C)O` [ABuT-boc, 8-O-(4-[4-t-butoxycarbonylaminophenyl]butanoyl)-8-O-debutanoylthapsigargin], in data set [2], it took 14.4 ± 0.8 nM to reach half-maximal inhibition (IC50).
Consider `C/C=C(/C)C(=O)O[C@H]1C(C)=C2[C@H]([C@@H]1OC(=O)CCCCCCC)[C@@](C)(OC(C)=O)C[C@H](OC(=O)CCC(=O)Nc1ccc(C)c(N)c1)[C@@]1(O)[C@H]2OC(=O)[C@@]1(C)O` [SDT, 8-O-{3-(N-[3-amino-4-methylphenyl]-carboxamido)propanoyl}-8-O-debutanoylthapsigargin], for which the CC50 in data set [1] was over 25000 nM. Further, the half-maximal inhibitory concentration (IC50) in data set [2] (setting [3]) was 1280 ± 91 nM.
